# Measurements published in patent publication US11369111B2, “Synergistic composition of nematicide comprising of chalcones” (priority 2017, dated 2022).
# Key:
# root-knot nematodes = assay: Gall formation in roots of infected cucumber plants (root gall index); assay type: in vivo
# [1] = test system: root knot nematodes in soil; assay: Effect on root knot nematodes in soil; assay type: in vivo, Meloidogyne
# cucumber crop = assay: Effect on growth of cucumber plants in a poly house; assay type: in vivo
# [2] = test system: P. aeruginosa (Gram negative); assay: Effect of chalcones on common microorganisms (CFU on nutrient agar plates); assay type: cell-based, Pseudomonas aeruginosa; details: for Effect on microorganism (Colony Forming Units): 24-48 hours
# Protocol: (§1) Two common soil microorganisms (Pseudomonas aeruginosa and Bacillus subtilis) and two common laboratory microorganisms (Escherichia coli, and Saccharomyces cerevisiae) were tested for the effects of individual chalcones. Microorganisms were grown on nutrient agar plates containing 10^−4, 10^−5, or 10^−6 M concentrations of chalcones and Colony Forming Units (CFU) were counted after 24-48 hours of growth in nutrient agar plates.
# [3] = test system: B. subtilis (Gram positive); assay: as above; assay type: cell-based, Bacillus subtilis; details: for Effect on microorganism (Colony Forming Units): 24-48 hours
# Protocol: as §1
# E. coli (Gram negative) = assay: as above; assay type: cell-based, Escherichia coli; details: for Effect on microorganism (Colony Forming Units): 24-48 hours
# Protocol: as §1
# Caenorhabditis elegans = details: 10^−4 M, laboratory conditions, individually; cited from earlier work
# S. cerevisiae = assay: Effect of chalcones on common microorganisms (CFU on nutrient agar plates); assay type: cell-based, Saccharomyces cerevisiae; details: for Effect on microorganism (Colony Forming Units): 24-48 hours
# Protocol: as §1
structure (smiles),measurement,setting,value
CNC(=O)Oc1cccc2c1OC(C)(C)C2 [Carbofuran],Root gall index (Day 1),root-knot nematodes; Day 1,1
same,Root gall index (Day 25 of treatment),root-knot nematodes; Day 25 of treatment,2 (2=1-25%)
same,Root gall index (Day 45-20 days after second treatment),"root-knot nematodes; Day 45, 20 days after second treatment",4 (4=51-75%)
same,effect on nematodes in the soil,"[1]; after 14 days, even at higher dosages",did not show any significant effect
same,efficacy in killing and maintaining a small number of nematodes in soil,[1]; after 19 days of treatment (FIG. 17-19),do not have the same positive effect
same,increase in shoot length compared to untreated plants,cucumber crop; Day 10 (FIG. 3),did not show similar positive effect
same,increase in leaf length compared to untreated plants,cucumber crop; Day 10 (FIG. 6),did not show similar positive effect
same,increase in number of flowers compared to untreated plants,cucumber crop; Day 10 (FIG. 9),did not show similar positive effect
same,increase in shoot length compared to untreated plants,cucumber crop; Day 21 (FIG. 4),did not have similar positive effect
same,increase in leaf length compared to untreated plants,cucumber crop; Day 21 (FIG. 7),did not show similar positive effect
same,increase in number of flowers compared to untreated plants,cucumber crop; Day 21 (FIG. 10),did not show similar positive effect
same,increase in number of fruits compared to untreated plants,cucumber crop; Day 21 (FIG. 12),did not show similar positive effect
same,increase in number of fruits compared to untreated plants,cucumber crop; Day 21 (FIG. 13),did not show similar positive effect
same,increase in number of fruits compared to untreated plants,cucumber crop; Day 21 (FIG. 14),did not show similar positive effect
same,increase in shoot length compared to untreated plants,cucumber crop; Day 35 (FIG. 5),did not show similar positive effect
same,increase in leaf length compared to untreated plants,cucumber crop; Day 35 (FIG. 8),did not show similar positive effect
same,increase in number of flowers compared to untreated plants,cucumber crop; Day 35 (FIG. 11),did not show similar positive effect
same,"Percentage Change compared to untreated, Average Leaf length",cucumber crop; after 28 days of treatment,6%
same,"Percentage Change compared to untreated, Average Shoot length",cucumber crop; after 28 days of treatment,3%
same,"Percentage Change compared to untreated, Average number of flowers",cucumber crop; after 28 days of treatment,−9%
same,"Percentage Change compared to untreated, Average number of fruits",cucumber crop; after 28 days of treatment,50%
"O=C(/C=C/c1ccccc1)c1ccc(Cl)cc1Cl [Chalcone 17, (2E)-1-(2,4-Dichlorophenyl)-3-phenyl-2-propen-1-one]",effect on growth of microorganism,[2],limit the growth
same,Effect on microorganism (Colony Forming Units),[2]; 10^−4 M,55.8
same,Effect on microorganism (Colony Forming Units),[2]; 10^−5 M,53.9
same,Effect on microorganism (Colony Forming Units),[2]; 10^−6 M,56.0
same,effect on growth of microorganism,[3],limit the growth
same,Effect on microorganism (Colony Forming Units),[3]; 10^−4 M,69.0
same,Effect on microorganism (Colony Forming Units),[3]; 10^−5 M,51.4
same,Effect on microorganism (Colony Forming Units),[3]; 10^−6 M,50.8
same,Effect on microorganism (Colony Forming Units),E. coli (Gram negative); 10^−4 M,115.4
same,Effect on microorganism (Colony Forming Units),E. coli (Gram negative); 10^−5 M,131.3
same,Effect on microorganism (Colony Forming Units),E. coli (Gram negative); 10^−6 M,97.3
same,nematicidal activity,Caenorhabditis elegans,shown nematicidal activity
same,Effect on microorganism (Colony Forming Units),S. cerevisiae; 10^−4 M,97.0
same,Effect on microorganism (Colony Forming Units),S. cerevisiae; 10^−5 M,82.8
same,Effect on microorganism (Colony Forming Units),S. cerevisiae; 10^−6 M,106.7
"CCOc1ccc(C(=O)/C=C/c2ccccc2)cc1 [Chalcone 25, (2E)-1-(4-Ethoxyphenyl)-3-phenyl-2-propen-1-one]",effect on growth of microorganism,[2],promote the growth
same,Effect on microorganism (Colony Forming Units),[2]; 10^−4 M,148.8
same,Effect on microorganism (Colony Forming Units),[2]; 10^−5 M,148.1
same,Effect on microorganism (Colony Forming Units),[2]; 10^−6 M,141.2
same,effect on growth of microorganism,[3],limit the growth
same,Effect on microorganism (Colony Forming Units),[3]; 10^−4 M,55.1
same,Effect on microorganism (Colony Forming Units),[3]; 10^−5 M,55.9
same,Effect on microorganism (Colony Forming Units),[3]; 10^−6 M,83.6
same,effect on growth of microorganism,E. coli (Gram negative),does not affect the growth
same,Effect on microorganism (Colony Forming Units),E. coli (Gram negative); 10^−4 M,52.3
same,Effect on microorganism (Colony Forming Units),E. coli (Gram negative); 10^−5 M,69.6
same,Effect on microorganism (Colony Forming Units),E. coli (Gram negative); 10^−6 M,103.3
same,nematicidal activity,Caenorhabditis elegans,shown nematicidal activity
same,effect on growth of microorganism,S. cerevisiae,does not affect the growth
same,Effect on microorganism (Colony Forming Units),S. cerevisiae; 10^−4 M,97.8
same,Effect on microorganism (Colony Forming Units),S. cerevisiae; 10^−5 M,125.4
same,Effect on microorganism (Colony Forming Units),S. cerevisiae; 10^−6 M,90.3
"O=C(/C=C/c1ccccc1)c1cccs1 [Chalcone 30, (2E)-3-Phenyl-1-(2-thienyl)-2-propen-1-one]",nematicidal activity,Caenorhabditis elegans,shown nematicidal activity
